This note sets out measurements from patent publication US20150004134A1, “TREATMENT OF CANCER WITH HETEROCYCLIC INHIBITORS OF GLUTAMINASE” (Calithera Biosciences, Inc., priority 2012, published 2015).

Each structure is given as a SMILES string. Some results are limits rather than exact numbers.

The assay relates to P493-6 (myc "on") cells. Kind of assay: Cell Proliferation Assay. It is filed as cell-based. The following applies: P493-6, 72 h, read-out: Cell prolif P493 72 h IC50, P493 cells, 72 h. The method in brief:
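Read-out: either Cell Titer Glo or Guava Viacount flow analysis after 72 h compound treatment of myc-on P493-6 cells (10,000/well, RPMI with 10% FBS) at 37 °C. DMSO held at 0.5% final.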
The IC50 is the point on the concentration scale where inhibition reaches its midpoint. In the case of `COC(=O)C(C(=O)Nc1nnc(CCSCCc2nnc(NC(=O)C(C(=O)OC)c3ccccc3)s2)s1)c1ccccc1` (stereo not drawn) [Compound 234], the IC50 stood at 2500 nM.

Consider `O=C(Cc1cccc(OCCO)c1)Nc1nnc(CCSCCc2nnc(NC(=O)Cc3cccc(OCCO)c3)s2)s1` [Compound 236], for which the IC50 turned out to be 1400 nM.

As for `O=C(Cc1cccs1)Nc1nnc(CCSCc2nnc(NC(=O)Cc3cccs3)s2)s1` [Compound 237], the IC50 worked out at 250 nM.

For `O=C(Cc1cccc(OCCN2CCOCC2)c1)Nc1nnc(CCSCCc2nnc(NC(=O)Cc3cccc(OCCN4CCOCC4)c3)s2)s1` [Compound 240], the IC50 turned out to be 1300 nM.

Consider `O=C(CN1C(=O)OC[C@H]1c1ccccc1)Nc1nnc(CCSCCc2nnc(NC(=O)CN3C(=O)OC[C@H]3c3ccccc3)s2)s1` [Compound 243], for which the IC50 is 33000 nM.

Turning to `COc1ccccc1C(CO)C(=O)Nc1nnc(CCSCCc2nnc(NC(=O)C(CO)c3ccccc3OC)s2)s1` (stereo not drawn) [Compound 245], the IC50 was determined as 2500 nM.

Regarding `COc1ccccc1CC(=O)Nc1nnc(CCSCCc2nnc(NC(=O)C(CO)c3ccccc3OC)s2)s1` (stereo not drawn) [Compound 246], the IC50 came out at 1600 nM.

For the compound `Cc1cccc(CC(=O)Nc2nnc(CCSCCc3nnc(NC(=O)Cc4cccc(C)c4)s3)s2)c1` [Compound 247], the IC50 was 830 nM.

Take `COc1ccccc1CC(=O)Nc1nnc(CCSCc2nnc(NC(=O)Cc3ccccc3OC)s2)s1` [Compound 249]: the IC50 stood at 160 nM.

Regarding `COCOCCOC(C(=O)Nc1nnc(CCCCc2nnc(NC(=O)C(OCCOCOC)c3ccccc3)s2)s1)c1ccccc1` (stereo not drawn) [Compound 251], the IC50 turned out to be 2800 nM.

In the case of `O=C(Nc1nnc(CCCCc2nnc(NC(=O)C(OCCO)c3ccccc3)s2)s1)C(OCCO)c1ccccc1` (stereo not drawn) [Compound 252], the IC50 worked out at 6300 nM.

`COc1cccc(C(CO)C(=O)Nc2nnc(CCCCc3nnc(NC(=O)C(CO)c4cccc(OC)c4)s3)s2)c1` (stereo not drawn) [Compound 257]: the IC50 is 73 nM.

As to `COc1cccc(C(CO)C(=O)Nc2nnc(CCSCc3nnc(NC(=O)C(CO)c4cccc(OC)c4)s3)s2)c1` (stereo not drawn) [Compound 258], the IC50 is 180 nM.

Regarding `COc1cccc(CC(=O)Nc2nnc(CCSCCc3nnc(NC(=O)Cc4cccc(OC)c4OC)s3)s2)c1OC` [Compound 259], the IC50 turned out to be 570 nM.

Consider `COc1cccc(CC(=O)Nc2nnc(CCCCc3nnc(NC(=O)Cc4cccc(OC)c4OC)s3)s2)c1OC` [Compound 260], for which the IC50 turned out to be 84 nM.

Take `CC(C(=O)Nc1nnc(CCSCCc2nnc(NC(=O)C(C)c3ccccc3Cl)s2)s1)c1ccccc1Cl` (stereo not drawn) [Compound 261]: the IC50 came out at 2600 nM.

With `Cc1ccccc1C(C)C(=O)Nc1nnc(CCSCCc2nnc(NC(=O)C(C)c3ccccc3C)s2)s1` (stereo not drawn) [Compound 262], the IC50 was 3100 nM.

For the compound `COc1ccccc1C(C)C(=O)Nc1nnc(CCSCCc2nnc(NC(=O)C(C)c3ccccc3OC)s2)s1` (stereo not drawn) [Compound 263], the half-inhibitory concentration (IC50) turned out to be 3900 nM.

Consider `COc1ccccc1CC(=O)Nc1nnc(CCCCc2nnc(NC(=O)Cc3ccccc3OC)s2)s1` [Compound 264], for which the IC50 came to 10 nM.

Regarding `COc1ccc(OC)c(CC(=O)Nc2nnc(CCCc3nnc(NC(=O)Cc4cc(OC)ccc4OC)s3)s2)c1` [Compound 265], the IC50 stood at 310 nM.

On to `CC(=O)NCC(C(=O)Nc1nnc(CCCCc2nnc(NC(=O)C(CNC(C)=O)c3ccccc3)s2)s1)c1ccccc1` (stereo not drawn) [Compound 266], for which the IC50 is above 50000 nM.

On to `O=C(Cc1cccc(OCCN2CCOCC2)c1)Nc1nnc(CCSCc2nnc(NC(=O)Cc3cccc(OCCN4CCOCC4)c3)s2)s1` [Compound 267], for which the IC50 is 640 nM.

Take `O=C(Cc1ccc2ncccc2c1)Nc1nnc(CCSCCc2nnc(NC(=O)Cc3ccc4ncccc4c3)s2)s1` [Compound 268]: the IC50 was 5400 nM.

`O=C(Cc1ccc2ncccc2c1)Nc1nnc(CCCCc2nnc(NC(=O)Cc3ccc4ncccc4c3)s2)s1` [Compound 269]: the IC50 stood at 520 nM.

Turning to `O=C(Cc1cccc(Br)c1)Nc1nnc(CCSCCc2nnc(NC(=O)Cc3cccc(Br)c3)s2)s1` [Compound 270], the IC50 amounted to 850 nM.

Regarding `COc1ccc(OC)c(CC(=O)Nc2nnc(CCCCc3nnc(NC(=O)Cc4ccccc4)s3)s2)c1` [Compound 271], the IC50 amounted to 630 nM.

`O=C(Cc1cccc(F)c1)Nc1nnc(CCCCc2nnc(NC(=O)Cc3cccc(F)c3)s2)s1` [Compound 273]: the IC50 amounted to 70 nM.

`CC(C(=O)Nc1nnc(CCCCc2nnc(NC(=O)C(C)c3ccccc3Cl)s2)s1)c1ccccc1Cl` (stereo not drawn) [Compound 274]: the IC50 was 680 nM.

As to `CC(C)(C)OC(=O)N1CCN(Cc2cccc(CC(=O)Nc3nnc(CCSCc4nnc(NC(=O)Cc5cccc(CN6CCN(C(=O)OC(C)(C)C)CC6)c5)s4)s3)c2)CC1` [Compound 275], the IC50 turned out to be 340 nM.

Turning to `O=C(Nc1nnc(CCCCc2nnc(NC(=O)C(O)(CO)c3ccccc3)s2)s1)C(O)(CO)c1ccccc1` (stereo not drawn) [Compound 278], the IC50 came out at 160 nM.

In the case of `CC1(C)OCC(C(=O)Nc2nnc(CCCCc3nnc(NC(=O)Cc4ccccc4)s3)s2)(c2ccccc2)O1` (stereo not drawn) [Compound 279], the IC50 turned out to be 7000 nM.

For the compound `O=C(Cc1ccccc1)Nc1nnc(CCCCc2nnc(NC(=O)C(O)(CO)c3ccccc3)s2)s1` (stereo not drawn) [Compound 280], the IC50 was 230 nM.

On to `O=C(Cc1ccccc1Br)Nc1nnc(CCCCc2nnc(NC(=O)Cc3ccccc3Br)s2)s1` [Compound 282], for which the IC50 is 370 nM.

For the compound `O=C(Cc1ccccc1Br)Nc1nnc(CCSCCc2nnc(NC(=O)Cc3ccccc3Br)s2)s1` [Compound 283], the IC50 worked out at 740 nM.

`O=C(Cc1cccc(-n2cccn2)c1)Nc1nnc(CCCCc2nnc(NC(=O)Cc3cccc(-n4cccn4)c3)s2)s1` [Compound 285]: the IC50 was determined as 140 nM.

In the case of `O=C(Cc1cccc(CN2CCNCC2)c1)Nc1nnc(CCCCc2nnc(NC(=O)Cc3cccc(CN4CCNCC4)c3)s2)s1` [Compound 286], the IC50 came to 6400 nM.

For `O=C(Nc1nnc(CCCCc2nnc(NC(=O)C(O)c3ccccc3Br)s2)s1)C(O)c1ccccc1Br` (stereo not drawn) [Compound 287], the IC50 stood at 1300 nM.

Consider `O=C(Nc1nnc(CCCCc2nnc(NC(=O)C(O)c3cccc(Br)c3)s2)s1)C(O)c1cccc(Br)c1` (stereo not drawn) [Compound 288], for which the IC50 stood at 28 nM.

Regarding `O=C(Cc1ccccc1)Nc1nnc(CCCCc2nnc(NC(=O)[C@H]3CCCC[C@@H]3C(=O)c3ccccc3)s2)s1` [Compound 290], the IC50 worked out at 790 nM.

For the compound `CC(C)[C@H](N)C(=O)OCC(C(=O)Nc1nnc(CCCCc2nnc(NC(=O)C(COC(=O)[C@@H](N)C(C)C)c3ccccc3)s2)s1)c1ccccc1` (stereo partly drawn) [Compound 291], the IC50 came out at 1800 nM.

Regarding `O=C(Cc1ccccc1F)Nc1nnc(CCCCc2nnc(NC(=O)Cc3ccccc3F)s2)s1` [Compound 292], the IC50 was 12 nM.

For the compound `O=C(Cc1c(F)cccc1F)Nc1nnc(CCCCc2nnc(NC(=O)Cc3c(F)cccc3F)s2)s1` [Compound 293], the IC50 was 40 nM.

Regarding `O=C(Cc1ccccc1F)Nc1nnc(CCSCCc2nnc(NC(=O)Cc3ccccc3F)s2)s1` [Compound 294], the IC50 is 1100 nM.

Take `Cc1nccn1Cc1cccc(CC(=O)Nc2nnc(CCCCc3nnc(NC(=O)Cc4cccc(Cn5ccnc5C)c4)s3)s2)c1` [Compound 296]: the IC50 came out at 170 nM.

Regarding `O=C(Cc1c(F)cccc1F)Nc1nnc(CCSCCc2nnc(NC(=O)Cc3c(F)cccc3F)s2)s1` [Compound 298], the half-inhibitory concentration (IC50) turned out to be 5100 nM.

As to `CCOc1ccccc1CC(=O)Nc1nnc(CCCCc2nnc(NC(=O)Cc3ccccc3OCC)s2)s1` [Compound 300], the IC50 was determined as 160 nM.

For the compound `O=C(OCC(C(=O)Nc1nnc(CCCCc2nnc(NC(=O)C(COC(=O)C3CCN(C(=O)OCc4ccccc4)CC3)c3ccccc3)s2)s1)c1ccccc1)C1CCN(C(=O)OCc2ccccc2)CC1` (stereo not drawn) [Compound 301], the IC50 came out at 230 nM.

For `O=C(OCC(C(=O)Nc1nnc(CCCCc2nnc(NC(=O)C(COC(=O)C3CCNCC3)c3ccccc3)s2)s1)c1ccccc1)C1CCNCC1` (stereo not drawn) [Compound 302], the IC50 was found to be 870 nM.

For `O=C(Cc1ccccc1)Nc1nnc(CCCCc2nnc(NC(=O)[C@@H]3CCCC[C@H]3C(O)c3ccccc3)s2)s1` (stereo partly drawn) [Compound 304], the IC50 came to 4900 nM.

As to `O=C(Cc1ccccc1)Nc1nnc(CCCCc2nnc(NC(=O)Cc3ccccc3)o2)o1` [Compound 305], the IC50 turned out to be 102000 nM.

Regarding `O=C(Nc1nnc(CCCCc2nnc(NC(=O)C(O)c3cccc(Cl)c3)s2)s1)C(O)c1cccc(Cl)c1` (stereo not drawn) [Compound 306], the IC50 worked out at 66 nM.

With `O=C(Cc1ccccn1)Nc1nnc(CCSCCc2nnc(NC(=O)Cc3ccccn3)s2)s1` [Compound 308], the IC50 was 1200 nM.

Turning to `O=C(Cc1ccccc1)Nc1nnc(CCCCc2nnc(NC(=O)Cc3cccnc3)s2)s1` [Compound 309], the IC50 worked out at 180 nM.

Regarding `O=C(Cc1cccnc1)Nc1nnc(CCCCc2nnc(NC(=O)Cc3cccnc3)s2)s1` [Compound 311], the IC50 was 22000 nM.

In the case of `O=C(Cc1ccccc1)Nc1ccc(CCCCc2nnc(NC(=O)C(O)c3ccccc3)s2)nn1` (stereo not drawn) [Compound 315], the IC50 was 35 nM.

For `O=C(Cc1ccccc1)Nc1nnc(CCCCc2nnc(NC(=O)C(CO)c3ccccc3)s2)s1` (stereo not drawn) [Compound 316], the IC50 was 75 nM.

In the case of `COc1cccc(C(O)C(=O)Nc2nnc(CCCCc3ccc(NC(=O)Cc4ccccc4)nn3)s2)c1` (stereo not drawn) [Compound 317], the IC50 was 10 nM.

With `COc1cc(C(O)C(=O)Nc2nnc(CCCCc3nnc(NC(=O)C(O)c4ccc(O)c(OC)c4)s3)s2)ccc1O` (stereo not drawn) [Compound 319], the IC50 worked out at 10000 nM.

Regarding `COc1ccc(C(O)C(=O)Nc2nnc(CCCCc3nnc(NC(=O)C(O)c4ccc(OC)cc4)s3)s2)cc1` (stereo not drawn) [Compound 320], the IC50 came to 190 nM.

`C[C@H](O)C(=O)Nc1nnc(CCCCc2nnc(NC(=O)Cc3ccccc3)s2)s1` [Compound 321]: the IC50 was 2600 nM.

Take `C[C@@H](O)C(=O)Nc1nnc(CCCCc2nnc(NC(=O)Cc3ccccc3)s2)s1` [Compound 322]: the IC50 amounted to 3000 nM.

For the compound `O=C(Cc1cccc2[nH]ccc12)Nc1nnc(CCCCc2nnc(NC(=O)Cc3cccc4[nH]ccc34)s2)s1` [Compound 323], the IC50 turned out to be 200 nM.

Turning to `CC(C)(C)OC(=O)Nc1cccc(CC(=O)Nc2nnc(CCCCc3nnc(NC(=O)Cc4cccc(NC(=O)OC(C)(C)C)c4)s3)s2)c1` [Compound 327], the IC50 is 150 nM.
